“Also recorded” adds a separate entry of the source.
Assays:
[1] = target: T1, VEGF binding to heparin (HS-GAG) (Homo sapiens, UniProt P15692); experiment: In vitro VEGF to HS-GAG binding assay (ELISA, heparin-BSA coated plate)
T1 construct: purchased Research and Development Systems
T1 sequence (P15692 27-191 isoform P15692-4): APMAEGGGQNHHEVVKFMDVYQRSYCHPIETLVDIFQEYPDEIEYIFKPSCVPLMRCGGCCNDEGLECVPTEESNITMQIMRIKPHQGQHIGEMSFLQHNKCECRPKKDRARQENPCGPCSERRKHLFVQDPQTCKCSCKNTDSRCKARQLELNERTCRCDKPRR
Description: An in vitro assay was used to assess the ability of test compounds of general formulas I and II to inhibit the interaction of VEGF with HS-GAGs. The assay was designed to for determine the concentration required for 50% inhibition (IC-50) for each specific compound. The test compounds were purchased from Life Chemicals Ltd. (Kiev, Ukraine), and the GAG used was heparin (heparin grade I-A; Sigma) conjugated to bovine serum albumin (Sigma) and diluted 1:200 in phosphate-buffered saline (PBS; pH 7.3). The heparin was added to a 96-well polystyrene ELISA plate (NUNC; 0.1 ml per well) and incubated overnight at 4° C. Following the incubation, the plate was washed thoroughly, by immersion, with de-ionized water and then with PBS (pH 7.3) containing Tween 20 (Sigma, 0.05%). The ELISA plate was then blocked with BSA (ICN, 3%, 200 μl per well) for 1 hour at room temperature. Following blocking, the plate was washed with de-ionized water, and then twice with PBS (pH 7.3) containing Tween 20. Recombinant human VEGF (Research and Development Systems) dissolved in PBS supplemented with BSA (0.1%) was added to the ELISA plate. The test compounds were dissolved in DMSO (MERCK), diluted in PBS and added to the wells at concentrations ranging from 0.01 to 200 μM to obtain a final volume 100 μl per well, and incubated for 60 minutes at room temperature with shaking. Following incubation, the plate was washed with de-ionized water and PBS (pH 7.3) containing Tween 20. Anti-human VEGF (1:2000; Research and Development Systems) diluted in PBS supplemented with BSA (1%) was added to the ELISA plate (100 per well) and incubated for 60 minutes at room temperature with shaking. Following incubation, the plate was washed with de-ionized water and then with PBS (pH 7.3) containing Tween 20. Streptavidin-HRP (1:200; Research and Development Systems Cat. No. DY998) diluted in PBS supplemented with BSA (1%) was added to the ELISA plate (100 per well) and incubated for 20 minutes at room temperature with shaking. The plate was then washed with de-ionized water and twice with PBS (pH 7.3) containing Tween 20. The peroxidase substrate chromogen tetramethyl benzidine (TMB; Dako) was added (100 μl per well) to the ELISA plate and incubated at room temperature. After 15 minutes, ELISA Stop Solution (hydrochloric acid 1N, sulfuric acid 3N) was added (100 μl per well) to stop the peroxidase catalyzed colorimetric reaction. The Optical Density (OD) of the samples was measured at 450 nm using an ELISA plate reader (Dynatech MR5000). Data were analyzed with Graphpad Prism software and IC-50 values were determined.
Percent inhibition at 30 μM concentration is shown and for selected compounds IC-50 was established.

[2] = system: carrageenan-induced paw edema in BALB/c mice; experiment: Carrageenan-induced paw edema; type: in vivo
Method: FIG. 1 is a graph showing the anti-inflammatory activity of Compounds 1-6 administered to mice intraperitoneally (i.p.) at 20 mg/kg, 1 hour before induction of paw edema (10-12 mice per group). The swelling of paws was measured 4 hours after induction, compared to controls and expressed as difference in paw thickness in mm (y-axis). The results were statistically evaluated by Student's t-test and statistical significance is indicated by one, two or three stars ([…]).
Acute edema was induced in the […] of BALB/c mice (10-12 mice/group) by injecting 0.02 ml of freshly prepared solution of 2% carrageenan (Sigma) under the plantar region of right hind paw (Tones et al., 2000). Carrageenan was injected 60 min after administration of the test compounds. The right paw received 0.02 ml of saline, which served as a control. The paw thickness was measured at 2, 4 and 24 hours after carrageenan challenge using a Mitutoyo engineer's micrometer. The difference between right and left pad was expressed as mean±SEM. Test compounds were injected intraperitoneally (i.p.) (20 mg/kg) in 0.5% Tween 80 in saline and vehicle control group received 0.5% Tween 80 in saline.
Compound 1 reduced paw edema by 33% and the reduction was statistically significant as determined by Student's t-test with […].

[3] = system: oxazolone-induced ear swelling in BALB/c mice; experiment: Delayed-type hypersensitivity (DTH), oxazolone mouse ear-swelling test; type: in vivo; conditions: for reduction of ear swelling: per os 50 mg/kg, 1 hour prior to challenge, after 48 hours; for inhibition of ear swelling (in words): DTH, FIG. 2, oral 50 mg/kg
Method: FIG. 2 is a graph showing the anti-inflammatory activity of Compounds 1, 2, 4, 5, 6 administered to mice orally at 50 mg/kg in a model of delayed-type hypersensitivity (DTH) (11-13 mice per group). The results for dexamethasone (10 mg/kg i.p.), a steroid positive control, are also shown. The y-axis represents difference in ear thickness in mm compared to control. The results were statistically evaluated by Student's t-test and statistical significance is indicated by one, two or three stars ([…]).
BALB/c mice (Velaz, Prague, Czech Republic; 8 week-old; 10-15 animals per group) were sensitized by topical application of a 2% oxazolone (4-ethoxymethylene-2-phenyl-2-oxazolin-5-one; Sigma, St Louis, Mo.) solution in acetone/olive oil (4:1 vol/vol) to a shaved abdomen area (50 μl) and to each paw (5 μl)(Lange-Asschenfeldt et al., 2002). Topical oxazolone administration induces immunomodulatory activity. Five days after sensitization, right ears were challenged by topical application of 10 μl of a 1% oxazolone solution, whereas left ears were treated with vehicle alone. Test compounds were administered 1 hour prior to challenge. The extent of inflammation was measured 24 hours and 48 hours after challenge, using the mouse ear-swelling test. Animals were numbered (tail marking) and weighed and the thickness of both ears was recorded with a constant-loading dial micrometer (Mitutoyo, Tokyo). The unpaired Student t-test was used for statistical analyses. Test compounds were administered per os at 50 mg/kg as a suspension with 0.5% methylcellulose. The vehicle control group received the same volume of 0.5% methylcellulose.

[4] = 20 mg/kg i.p., 60 min before carrageenan, 4 hours after induction

| Structure (SMILES) | IC50 [1] | inhibition at 30 µM [1] | reduction of paw edema [2, 4] | reduction of ear swelling [3] | inhibition of ear swelling (in words) [3] | reduction of paw edema ([2]; 50 mg/kg dose, separate experiment (data not shown)) | inhibition of ear swelling (in words) ([3]; 50 mg/kg) |
| --- | --- | --- | --- | --- | --- | --- | --- |
| CC(C)N1CCc2c(sc(NC(=O)c3ccc(N(C)C)cc3)c2-c2nc3ccccc3s2)C1 [Compound 2, N-[3-(2-benzothiazolyl)-4,5,6,7-tetrahydro-6-(1-methylethyl)thieno[2,3-c]pyridin-2-yl]-4-(dimethylamino)benzamide] | 1700 nM | 53% | 28.1% | 18.1% |  |  |  |
| CCN1CCc2c(sc(NC(=O)c3ccc(C#N)cc3)c2-c2nc3ccccc3s2)C1 [Compound 1, N-[3-(2-benzothiazolyl)-4,5,6,7-tetrahydro-6-ethylthieno[2,3-c]pyridin-2-yl]-4-cyanobenzamide] | 220 nM | 82% | 33% | 41.4% |  |  |  |
| COc1cccc(OCC(=O)Nc2sc3c(c2-c2nc4ccccc4s2)CCN(C)C3)c1 [Compound 4, N-[3-(2-benzothiazolyl)-4,5,6,7-tetrahydro-6-methylthieno[2,3-c]pyridin-2-yl]-2-(3-methoxyphenoxy)acetamide] | 1800 nM | 65% | 22.8% | 33.5% | significantly inhibited ear swelling |  |  |
| CSc1ccc(CC(=O)Nc2sc3c(c2-c2nc4ccccc4s2)CCN(C)C3)cc1 [Compound 3, N-[3-(2-benzothiazolyl)-4,5,6,7-tetrahydro-6-methylthieno[2,3-c]pyridin-2-yl]-2-(4-methylthiophenyl)acetamide] |  | 60% | 32.1% |  |  |  |  |
| CN1CCc2c(sc(NC(=O)c3cccs3)c2-c2nc3ccccc3s2)C1 [Compound 7, N-[3-(2-benzothiazolyl)-4,5,6,7-tetrahydro-6-methylthieno[2,3-c]pyridin-2-yl]-2-thiophenecarboxamide] | 1700 nM | 70% |  | 32.7% |  | 18.5% |  |
| CN1CCc2c(sc(NC(=O)c3cc4ccccc4o3)c2-c2nc3ccccc3s2)C1 [Compound 5, N-[3-(2-benzothiazolyl)-4,5,6,7-tetrahydro-6-methylthieno[2,3-c]pyridin-2-yl]-benzo[b]furan-2-carboxamide] | 140 nM | 81% | 29.2% | 49.3% |  |  | significantly inhibited ear swelling; also recorded: Particularly strong response, comparable with the steroid dexamethasone |
| CN1CCc2c(sc(NC(=O)CCN3C(=O)c4ccccc4C3=O)c2-c2nc3ccccc3s2)C1 [Compound 6, N-[3-(2-benzothiazolyl)-4,5,6,7-tetrahydro-6-methylthieno[2,3-c]pyridin-2-yl]-3-(1,3-dihydro-1,3-dioxo-2H-isoindole-2)propanamide] |  | 29% | 19.5% | 19.1% | significantly inhibited ear swelling |  |  |
